Where a name gives a salt, the structure may show the parent alone.
Experiments:
A549 cells = experiment: Inhibition of PGE2 production in A549 cell (IL-1β stimulated); assay type: cell-based, human; settings: Homo sapiens, A549, 24 h, IL-1β 5 ng/well, PGE2 in culture medium
Summary of the method: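 After IL-1β (5 ng/well) stimulation for 24 h at 37 °C, following a 60-min compound pretreatment in RPMI with 3% FBS, medium PGE2 (HTRF) and PGF2α (EIA) from human A549 cells were quantified. 100% activity set as IL-1β-induced minus basal production; IC50 calculated.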

human mPGES-1 = human mPGES-1 (Homo sapiens (Human), UniProt O14684); experiment: mPGES-1 inhibiting activity (microsome fractions, PGE2 by HTRF); assay type: biochemical; settings: microsomes from CHO-K1 cells transfected with human mPGES-1; PGH2 1 μM, 4° C., 60 seconds; read-out: mPGES-1 Inhibition IC50
human mPGES-1, sequence (O14684 whole entry): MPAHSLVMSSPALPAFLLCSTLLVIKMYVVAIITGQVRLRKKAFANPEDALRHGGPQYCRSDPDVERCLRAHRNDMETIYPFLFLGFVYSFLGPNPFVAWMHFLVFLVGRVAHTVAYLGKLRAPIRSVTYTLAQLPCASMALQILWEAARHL
Summary of the method: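 PGE2 formation read by HTRF after 60 s at 4 °C with 1 μM PGH2 substrate, following 20 min compound preincubation (1% DMSO) with human mPGES-1 microsomes from transfected CHO-K1 cells. Buffer: potassium phosphate, reduced glutathione, pH 7.4; IC50 from activity relative to enzyme-free blank.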

| SMILES | IC50 (A549 cells) | IC50 (human mPGES-1) |
| --- | --- | --- |
| COCC(C)(C)CN(C)c1nc2c(C(=O)Nc3cccc(Cl)c3C)cc(NC(=O)c3ccccc3C(F)(F)F)cc2[nH]1 [Example 173, N-(3-Chloro-2-methylphenyl)-2-[(3-methoxy-2,2-dimethylpropyl)(methyl)amino]-6-({[2-(trifluoromethyl)phenyl]carbonyl}amino)-1H-benzimidazole-4-carboxamide hydrochloride] | 0.0608 µM | 0.0011 µM |
| Cc1c(Cl)cccc1NC(=O)c1cc(NC(=O)c2ccccc2C(F)(F)F)cc2[nH]c(NCCOC(C)(C)C)nc12 [Example 176, 2-[(2-tert-Butoxyethyl)amino]-N-(3-chloro-2-methylphenyl)-6-({[2-(trifluoromethyl)phenyl]carbonyl}amino)-1H-benzimidazole-4-carboxamide hydrochloride] | 0.138 µM | 0.0003 µM |
| CSc1nc2c(C(=O)Nc3cccc(Cl)c3C)cc(NC(=O)c3ccccc3C(F)(F)F)cc2[nH]1 [Example 179, N-(3-Chloro-2-methylphenyl)-2-(methylsulfanyl)-6-({[2-(trifluoromethyl)phenyl]carbonyl}amino)-1H-benzimidazole-4-carboxamide] | 0.0202 µM | 0.0036 µM |
| Cc1c(Cl)cccc1NC(=O)c1cc(NC(=O)c2ccccc2C(F)(F)F)cc2[nH]c(S(C)(=O)=O)nc12 [Example 180, N-(3-Chloro-2-methylphenyl)-2-(methylsulfonyl)-6-({[2-(trifluoromethyl)phenyl]carbonyl}amino)-1H-benzimidazole-4-carboxamide] | 0.774 µM | 0.0011 µM |

Further lines, results first:

| IC50 (A549 cells) | IC50 (human mPGES-1) | SMILES |
| --- | --- | --- |
| 0.0978 µM | 0.0047 µM | Cc1c(Cl)cccc1NC(=O)c1cc(NC(=O)c2ccccc2C(F)(F)F)cc2[nH]c(N[C@@H](CO)C(C)C)nc12 [Example 171, N-(3-Chloro-2-methylphenyl)-2-{[(2R)-1-hydroxy-3-methylbutan-2-yl]amino}-6-({[2-(trifluoromethyl)phenyl]carbonyl}amino-1H-benzimidazole-4-carboxamide hydrochloride] |
| 0.134 µM | 0.0045 µM | Cc1c(Cl)cccc1NC(=O)c1cc(NC(=O)c2ccccc2C(F)(F)F)cc2[nH]c(N[C@H](CO)C(C)(C)C)nc12 [Example 172, N-(3-Chloro-2-methylphenyl)-2-{[(2S)-1-hydroxy-3,3-dimethylbutan-2-yl]amino}-6-({[2-(trifluoromethyl)phenyl]carbonyl}amino)-1H-benzimidazole-4-carboxamide hydrochloride] |
| 0.117 µM | 0.002 µM | COCCCNc1nc2c(C(=O)Nc3cccc(Cl)c3C)cc(NC(=O)c3ccccc3C(F)(F)F)cc2[nH]1 [Example 174, N-(3-Chloro-2-methylphenyl)-2-[(3-methoxypropyl)amino]-6-({[2-(trifluoromethyl)phenyl]carbonyl}amino)-1H-benzimidazole-4-carboxamide hydrochloride] |
| 0.144 µM | 0.0036 µM | Cc1c(Cl)cccc1NC(=O)c1cc(NC(=O)c2ccccc2C(F)(F)F)cc2[nH]c(NCCOC(C)C)nc12 [Example 175, N-(3-Chloro-2-methylphenyl)-2-{[2-(propan-2-yloxy)ethyl]amino}-6-({[2-(trifluoromethyl)phenyl]carbonyl}amino)-1H-benzimidazole-4-carboxamide hydrochloride] |
| 0.0452 µM | 0.0083 µM | COC(C)(C)CNc1nc2c(C(=O)Nc3cccc(Cl)c3C)cc(NC(=O)c3ccccc3C(F)(F)F)cc2[nH]1 [Example 177, N-(3-Chloro-2-methylphenyl)-2-[(2-methoxy-2-methylpropyl)amino]-6-({[2-(trifluoromethyl)phenyl]carbonyl}amino)-1H-benz imidazole-4-carboxamide hydrochloride] |
| 0.0128 µM | 0.0012 µM | CSCCNc1nc2c(C(=O)Nc3cccc(Cl)c3C)cc(NC(=O)c3ccccc3C(F)(F)F)cc2[nH]1 [Example 178, N-(3-Chloro-2-methylphenyl)-2-{[2-(methylsulfanyl)ethyl]amino}-6-({[2-(trifluoromethyl)phenyl]carbonyl}amino)-1H-benzimidazole-4-carboxamide hydrochloride] |
